The target in test [1] is T1, ARAF (Homo sapiens, UniProt P10398).
T1 sequence (P10398 310-570 limits assumed): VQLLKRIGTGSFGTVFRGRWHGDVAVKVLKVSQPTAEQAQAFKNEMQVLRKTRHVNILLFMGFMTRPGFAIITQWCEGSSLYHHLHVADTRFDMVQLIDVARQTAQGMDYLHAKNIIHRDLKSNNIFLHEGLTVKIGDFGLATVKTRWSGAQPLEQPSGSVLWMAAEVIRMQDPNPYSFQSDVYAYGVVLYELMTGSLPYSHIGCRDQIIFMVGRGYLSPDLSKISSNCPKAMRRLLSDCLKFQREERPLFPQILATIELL
Briefly: ARAF kinase activity assay (AlphaLISA p-MEK detection). It counts as biochemical. Particulars: Table A. How it is done:
Compound preparation: solid samples of each substances in 1dram vials were suspended in DMSO (Fisher Scientific) at a stock concentration of 20 mM. Stocks were kept at −20° C. and protected from light. If solubility of the compound at 20 mM appeared to be an issue, the initial concentration of the DMSO stock was changed to 10 mM or 5 mM.
In vitro enzymatic reactions were used for evaluating compounds intrinsic activity against BRAF, CRAF and ARAF. For BRAF and CRAF, 0.375 nM of purified GST-tagged kinases (cat #B4062-10UG and cat #R1656-10UG respectively from Millipore Sigma) were incubated with 75 nM of kinase-dead MEK1 substrate (cat #40075; BPS Bioscience) in the presence of 10 μM of Ultrapure ATP (cat #V9102; Promega; part V915A) with and without the test compound in a buffer containing 50 mM HEPES pH 7.5, 10 mM MgCl2, 1 mM EDTA, 0.01% Brij-35 and 2 mM DTT. Separate reactions were performed with the MEK1 substrate and ATP as a blank control. ARAF, kinase reactions were rigorously the same with the exception that kinase concentration was raised to 3.75 nM (cat #1768-0000-1; Reaction Biology).
For compound treatment, 5 μL/well of test substance solution are placed in a 384-well proxyplate (Perkin Elmer) and mixed with 2× concentrated kinase reactions. The dilution series is selected so that nine concentrations cover a range from 100 nM to 0.01 nM. […] The final concentration of DMSO in the assay is set at 0.05%.
ARAF kinase reactions were carried out for a total of 2 hours at 30° C. and then stopped by addition of EDTA at a final concentration of 40 mM. Reactions were then detected using the AlphaLISA® SureFire® Ultra™ p-MEK ½ (Ser218/222) (PerkinElmer) kit. Reactions were performed with 5 μL of kinase reaction according to the manufacturer's specifications in 384-well proxyplates (Perkin Elmer) followed by overnight incubation of the reactions at room temperature in a humidified chamber. After completion of the detection reactions, the signals were recorded on a Synergy Neo2 plate reader (Biotek) equipped with AlphaLISA® filters. The effect of each compound dilution on the pMEK signal generated by ARAF reactions was expressed in % inhibition and calculated as follows. An internal 100% inhibition control (average of luminescence in kinase reactions comprising kinase dead MEK1 substrate alone) was included in each plate to measure of pMEK background and was subtracted from each data point. The average of DMSO (vehicle) controls (set as 0% inhibition) was also established and used to calculate % inhibition:
IC50 values were obtained by plotting the kinase inhibition values and fitting the dose-activity curves using a log(agonist) versus response−variable slope (four parameters) function using either GraphPadPrism (V7.0) or Dotmatics Screening Ultra platform. Standards included in the ARAF kinase assay were Belvarafenib (MedChem Express cat #HY-109080; CAS #1446113-23-0), LXH254 (MedChem Express cat #HY-112089; CAS #1800398-38-2) and BGB283 (cat #HY-18957; CAS #1446090-79-4).

Test [2] concerns the target CRAF (Homo sapiens, UniProt P04049). Briefly: CRAF kinase activity assay (ADP-Glo). The test is classed as biochemical. The method in brief: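 CRAF inhibition was measured by ADP-Glo. 0.375 nM purified GST-tagged CRAF was combined with 75 nM kinase-dead MEK1 substrate and 10 μM ATP in 50 mM HEPES pH 7.5, 10 mM MgCl2, 1 mM EDTA, 0.01% Brij-35 and 2 mM DTT, with nine compound concentrations from 100 nM to 0.01 nM (0.05% DMSO), in 384-well plates for 2 hours at 30° C. Luminescence was read after adding ADP-Glo and Kinase Detection reagents. IC50 came from four-parameter curve fits.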

For test [3], the system named is HCT116 pERK. Briefly: Phospho-ERK inhibition, AlphaLISA SureFire Ultra p-ERK 1/2. The test is classed as cell-based, human. The following applies: for IC50: 1 h treatment; for HCT116 (Ymin %): lowest value of the pERK IC50 curve. In outline: (§1)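 Cells plated in RPMI-1640 with 5% FBS, held overnight, then exposed 1 h to ten-point compound dilutions (top 30 or 10 μM down to 0.33 nM; 0.5% DMSO). Lysates read for p-ERK1/2 (Thr202/Tyr204) by AlphaLISA; % inhibition relative to DMSO after subtracting a 1 μM trametinib background; IC50 from four-parameter fit.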

Test [4] concerns SW480 pERK. The test is described as above. It counts as cell-based, human. The following applies: for IC50: 1 h treatment; for SW480 (Ymin %): lowest value of the pERK IC50 curve. The method in brief: as §1
For test [5], the target named is T2, BRAF (Homo sapiens, UniProt P15056).
T2 construct: GST; purchased Millipore Sigma B4062-10UG
Briefly: BRAF kinase activity assay (ADP-Glo). The test is classed as biochemical. The method in brief: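 GST-tagged BRAF (0.375 nM) was reacted with 75 nM kinase-dead MEK1 and 10 μM ATP for 2 h at 30 °C in HEPES pH 7.5 buffer with MgCl2, EDTA, Brij-35 and DTT. Compounds were tested at nine concentrations from 100 nM to 0.01 nM with 0.05% DMSO final. ADP-Glo luminescence gave % inhibition, and IC50 came from a four-parameter fit.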

Setting [6] is: Table 3, read-out: SW480 PERK IC50.

The text below walks through data of patent US20240239801A1, “PYRIMIDO[5,4,D]PYRIMIDINE COMPOUNDS, COMPOSITIONS COMPRISING THEM AND USES THEREOF” (Université de Montréal, priority 2021, published 2024).

Read-outs that look alike come from different tables or passages of the source.

Sequence of CRAF (P04049 whole entry): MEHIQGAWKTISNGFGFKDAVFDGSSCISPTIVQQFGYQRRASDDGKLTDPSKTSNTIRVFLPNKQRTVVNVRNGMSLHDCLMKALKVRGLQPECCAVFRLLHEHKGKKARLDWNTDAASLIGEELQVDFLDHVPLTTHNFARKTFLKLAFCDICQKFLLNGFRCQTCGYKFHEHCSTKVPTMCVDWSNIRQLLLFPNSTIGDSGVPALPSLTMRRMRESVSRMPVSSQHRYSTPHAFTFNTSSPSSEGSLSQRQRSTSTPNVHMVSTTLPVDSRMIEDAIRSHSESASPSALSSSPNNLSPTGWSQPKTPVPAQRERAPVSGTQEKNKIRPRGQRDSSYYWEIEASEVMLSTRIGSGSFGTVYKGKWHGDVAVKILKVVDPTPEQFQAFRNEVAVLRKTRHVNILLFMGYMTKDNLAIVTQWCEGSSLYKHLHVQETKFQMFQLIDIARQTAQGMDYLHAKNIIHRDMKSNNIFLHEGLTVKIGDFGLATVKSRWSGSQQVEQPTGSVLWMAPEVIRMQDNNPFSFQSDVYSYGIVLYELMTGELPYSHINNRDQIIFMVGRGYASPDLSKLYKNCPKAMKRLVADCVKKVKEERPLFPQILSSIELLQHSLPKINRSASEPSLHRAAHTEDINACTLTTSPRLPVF
T2 sequence (P15056 whole entry): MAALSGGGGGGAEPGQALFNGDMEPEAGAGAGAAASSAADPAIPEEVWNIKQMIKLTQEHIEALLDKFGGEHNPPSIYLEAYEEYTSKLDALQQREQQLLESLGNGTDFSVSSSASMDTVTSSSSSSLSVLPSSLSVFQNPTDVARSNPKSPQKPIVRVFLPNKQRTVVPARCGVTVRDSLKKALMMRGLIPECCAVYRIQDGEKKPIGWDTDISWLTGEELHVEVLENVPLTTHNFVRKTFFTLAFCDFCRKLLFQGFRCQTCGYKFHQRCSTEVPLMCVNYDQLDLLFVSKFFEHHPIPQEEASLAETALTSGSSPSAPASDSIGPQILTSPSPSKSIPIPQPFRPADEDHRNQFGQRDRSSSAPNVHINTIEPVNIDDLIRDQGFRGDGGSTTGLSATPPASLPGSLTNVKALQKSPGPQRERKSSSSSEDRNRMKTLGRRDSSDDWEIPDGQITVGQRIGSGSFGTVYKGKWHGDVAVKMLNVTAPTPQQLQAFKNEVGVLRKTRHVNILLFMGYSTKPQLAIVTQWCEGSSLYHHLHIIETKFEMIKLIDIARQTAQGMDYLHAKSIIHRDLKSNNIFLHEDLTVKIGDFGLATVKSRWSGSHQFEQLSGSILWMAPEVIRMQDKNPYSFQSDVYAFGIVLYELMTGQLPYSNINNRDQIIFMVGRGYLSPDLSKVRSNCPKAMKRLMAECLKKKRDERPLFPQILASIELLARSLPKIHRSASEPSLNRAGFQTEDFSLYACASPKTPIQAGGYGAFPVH

For the molecule `O=C1CCc2c(Oc3ccc4c(c3)[C@@H]3[C@H](O4)[C@H]3c3nc4ccc(C(F)(F)F)cc4[nH]3)ccnc2N1` [BGB283, reference compound], the IC50 in test [1] was greater than 20 nM.

For `O=S(=O)(Nc1ccc(F)c(Nc2ncnc3cnc(-n4cnc5ccccc54)nc23)c1F)c1cccc(Cl)c1Cl` [Example 81], the IC50 in test [2] (Table 3) is less than 10 nM; in test [3] (Homo sapiens, HCT-116, Table 3), less than 500 nM; in test [4] (Homo sapiens, SW480, Table 3, read-out: SW480 PERK IC50) it was less than 500 nM; in test [5] (Table 3), less than 1 nM. In test [4] (Table 3), the “SW480 (Ymin %)” value is 3%.

In the case of `O=S(=O)(Nc1ccc(F)c(Nc2ncnc3cnc(-n4cnc5ccccc54)nc23)c1F)c1ccc(Cl)cc1Cl` [Example 63], the IC50 was less than 10 nM in test [2] (Table 3), 1000 to 10000 nM in test [3] (Table 3), 1000 to 10000 nM in test [4] (setting [6]) and 1 to 10 nM in test [5] (Table 3). The “HCT116 (Ymin %)” value in test [3] (Table 3) is recorded as −2%. Besides, the “SW480 (Ymin %)” value in test [4] (Table 3) turned out to be 1%.

Turning to `Cc1c(F)cccc1S(=O)(=O)Nc1ccc(F)c(Nc2ncnc3cnc(-n4cnc5ccccc54)nc23)c1F` [Example 83], the half-inhibitory concentration (IC50) was less than 10 nM in test [2] (Table 3), less than 500 nM in test [3] (Table 3), less than 500 nM in test [4] (setting [6]) and 1 to 10 nM in test [5] (Table 3). Further, the “HCT116 (Ymin %)” value in test [3] (Table 3) is −10%. The “SW480 (Ymin %)” value in test [4] (Table 3) is listed as −2%.

`Cc1ncn(-c2ncc3ncnc(Nc4c(F)ccc(NS(=O)(=O)c5ccc(Cl)cc5Cl)c4F)c3n2)c1C` [Example 62]: the half-inhibitory concentration (IC50) in test [2] (Table 3) lay within 10 to 50 nM; in test [3] (Table 3), 1000 to 10000 nM; in test [4] (setting [6]), 500 to 1000 nM; in test [5] (Table 3), 1 to 10 nM. The “HCT116 (Ymin %)” value in test [3] (Table 3) turned out to be 11%. For the same molecule, the “SW480 (Ymin %)” value in test [4] (Table 3) worked out at 2%.

Regarding `COc1ccc(S(=O)(=O)Nc2ccc(F)c(Nc3ncnc4cnc(N5CC[C@H](F)C5)nc34)c2F)c(C)c1` [Example 57], the IC50 in test [2] (Table 3) was greater than 50 nM; in test [3] (Table 3), 1000 to 10000 nM; in test [4] (setting [6]), 1000 to 10000 nM; in test [5] (Table 3), greater than 10 nM. Also, the “HCT116 (Ymin %)” value in test [3] (Table 3) is −2%. Further, in test [4] (Table 3), the “SW480 (Ymin %)” value is −2%.

As to `O=S(=O)(Nc1ccc(F)c(Nc2ncnc3cnc(-n4cnc5c(N6CCN(CCO)CC6)cccc54)nc23)c1F)c1cccc(Cl)c1Cl` [Example 146], the IC50 was less than 10 nM in test [2] (Table 3), less than 500 nM in test [3] (Table 3) and less than 1 nM in test [5] (Table 3). The “HCT116 (Ymin %)” value in test [3] (Table 3) is −9%.

On to `Cc1c(F)cccc1S(=O)(=O)Nc1ccc(F)c(Nc2ncnc3cnc(-n4cnc5c(N)cccc54)nc23)c1F` [Example 82], for which the 50% inhibitory concentration (IC50) in test [2] (Table 3) was less than 10 nM; in test [3] (Table 3), less than 500 nM; in test [4] (setting [6]), less than 500 nM; in test [5] (Table 3) it was 1 to 10 nM. In test [3] (Table 3), the “HCT116 (Ymin %)” value is recorded as −10%. Besides, the “SW480 (Ymin %)” value in test [4] (Table 3) is reported as 3.2%.

As for `COc1ccc(S(=O)(=O)Nc2ccc(F)c(Nc3ncnc4c(N)nc(-n5cnc6ccccc65)nc34)c2F)c(C)c1` [Example 88], the IC50 in test [2] (Table 4) is greater than 50 nM; in test [3] (Homo sapiens, HCT-116, Table 4), 1000 to 10000 nM; in test [4] (Homo sapiens, SW480, Table 4, read-out: SW480 PERK IC50) it was 1000 to 10000 nM; in test [5] (Table 4), greater than 10 nM. Moreover, the “SW480 (Ymin %)” value in test [4] (Table 4) was 2%.

In the case of `CCC1(O)CCN(c2cccc3c2ncn3-c2ncc3ncnc(Nc4c(F)ccc(NS(=O)(=O)c5cccc(C)c5Cl)c4F)c3n2)CC1` [Example 153], the IC50 in test [2] (Table 3) is 10 to 50 nM; in test [3] (Table 3), less than 500 nM; in test [5] (Table 3), 1 to 10 nM. Moreover, the “HCT116 (Ymin %)” value in test [3] (Table 3) is reported as −6%.

`COc1ccc(S(=O)(=O)Nc2ccc(F)c(Nc3ncnc4cnc(SC)nc34)c2F)cc1` [Example 1]: the half-maximal inhibitory concentration (IC50) was greater than 50 nM in test [2] (Table 2); 10000 to 30000 nM in test [3] (Homo sapiens, HCT-116, Table 2); 1000 to 10000 nM in test [4] (Homo sapiens, SW480, Table 2, read-out: SW480 PERK IC50 (UM)); greater than 10 nM in test [5] (Table 2). Further, in test [4] (Table 2), the “SW480 (Ymin %)” value is on record as 6%.

With `CCC1(O)CCN(c2cccc3c2ncn3-c2ncc3ncnc(Nc4c(F)ccc(NS(=O)(=O)c5ccc(F)c(F)c5C)c4F)c3n2)CC1` [Example 155], the IC50 in test [2] (Table 3) is greater than 50 nM; in test [3] (Table 3), less than 500 nM; in test [5] (Table 3), 1 to 10 nM. Further, the “HCT116 (Ymin %)” value in test [3] (Table 3) is −8%.

Turning to `Cc1ccc(NC(=O)c2ccnc(C(F)(F)F)c2)cc1-c1cc(OCCO)nc(N2CCOCC2)c1` [LXH254, reference compound], the half-maximal inhibitory concentration (IC50) in test [1] is greater than 20 nM.

Turning to `Nc1cccc2c1nnn2-c1ncc2ncnc(Nc3c(F)ccc(NS(=O)(=O)c4cccc(Cl)c4Cl)c3F)c2n1` [Example 94], the IC50 in test [2] (Table 3) is less than 10 nM; in test [3] (Table 3), less than 500 nM; in test [5] (Table 3), 1 to 10 nM. Besides, the “HCT116 (Ymin %)” value in test [3] (Table 3) came out at 7.7%.
